Experimental data as given in ChEMBL document CHEMBL4033732, “Identification and synthesis of novel inhibitors of mycobacterium ATP synthase” (Bioorg Med Chem Lett, 2017).
≈ marks a conversion by molar mass, not a printed value.

Legend:
[1] = tested on: Mycobacterium tuberculosis; assay: Antimicrobial activity against Mycobacterium tuberculosis H37Rv assessed as reduction in microbial growth incubated for 5 days by CLSI protocol based assay; format: functional; conditions: 120 h
[2] = Inhibition of ATP synathse in Mycobacterium smegmatis str. MC2 155 inverted membrane vesicles assessed as ATP formation pre-incubated for 30 mins before NADH-ADP-phosphate buffer cocktail addition and measured after 60 mins by kinase glow reagent based assay; design: species or system Mycolicibacterium smegmatis MC2 155
CYP2C19 = CYP2C19 (Homo sapiens, UniProt P33261); assay: Inhibition of CYP2C19 in human liver microsomes at 10 uM; format: ADME
Chain of CYP2C19 (P33261 whole entry): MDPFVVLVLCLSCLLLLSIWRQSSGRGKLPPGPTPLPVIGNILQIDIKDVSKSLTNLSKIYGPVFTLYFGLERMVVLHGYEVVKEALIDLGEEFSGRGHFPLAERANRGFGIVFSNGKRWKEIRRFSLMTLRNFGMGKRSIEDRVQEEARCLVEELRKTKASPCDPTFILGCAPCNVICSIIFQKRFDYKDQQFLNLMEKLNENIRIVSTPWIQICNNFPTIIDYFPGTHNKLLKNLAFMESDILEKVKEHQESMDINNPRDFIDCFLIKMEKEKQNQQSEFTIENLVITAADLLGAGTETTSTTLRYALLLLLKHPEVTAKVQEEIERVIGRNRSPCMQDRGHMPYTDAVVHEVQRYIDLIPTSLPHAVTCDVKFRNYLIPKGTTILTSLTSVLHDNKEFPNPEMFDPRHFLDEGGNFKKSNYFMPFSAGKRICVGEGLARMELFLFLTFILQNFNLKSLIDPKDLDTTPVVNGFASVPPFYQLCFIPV

CYP2D6 = CYP2D6 (Homo sapiens, UniProt P10635); assay: Inhibition of CYP2D6 in human liver microsomes at 10 uM; format: ADME
Chain of CYP2D6 (P10635 whole entry): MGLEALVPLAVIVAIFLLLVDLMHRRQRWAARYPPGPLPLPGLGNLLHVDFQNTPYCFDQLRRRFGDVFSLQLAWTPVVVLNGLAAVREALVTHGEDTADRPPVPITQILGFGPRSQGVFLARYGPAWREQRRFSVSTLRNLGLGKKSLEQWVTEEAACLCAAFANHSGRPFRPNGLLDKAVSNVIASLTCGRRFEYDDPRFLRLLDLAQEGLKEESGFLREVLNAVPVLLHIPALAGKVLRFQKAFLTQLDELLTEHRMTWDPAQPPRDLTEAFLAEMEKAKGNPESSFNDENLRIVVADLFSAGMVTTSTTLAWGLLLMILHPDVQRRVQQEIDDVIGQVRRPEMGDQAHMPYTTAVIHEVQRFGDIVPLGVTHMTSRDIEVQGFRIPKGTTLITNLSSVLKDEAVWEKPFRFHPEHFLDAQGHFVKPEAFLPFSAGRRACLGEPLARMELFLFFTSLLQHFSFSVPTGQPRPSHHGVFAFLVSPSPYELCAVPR

CYP1A2 = biological target: T1, CYP1A2 (Homo sapiens, UniProt P05177); assay: Inhibition of CYP1A2 in human liver microsomes at 10 uM; format: ADME
T1 sequence (P05177 whole entry): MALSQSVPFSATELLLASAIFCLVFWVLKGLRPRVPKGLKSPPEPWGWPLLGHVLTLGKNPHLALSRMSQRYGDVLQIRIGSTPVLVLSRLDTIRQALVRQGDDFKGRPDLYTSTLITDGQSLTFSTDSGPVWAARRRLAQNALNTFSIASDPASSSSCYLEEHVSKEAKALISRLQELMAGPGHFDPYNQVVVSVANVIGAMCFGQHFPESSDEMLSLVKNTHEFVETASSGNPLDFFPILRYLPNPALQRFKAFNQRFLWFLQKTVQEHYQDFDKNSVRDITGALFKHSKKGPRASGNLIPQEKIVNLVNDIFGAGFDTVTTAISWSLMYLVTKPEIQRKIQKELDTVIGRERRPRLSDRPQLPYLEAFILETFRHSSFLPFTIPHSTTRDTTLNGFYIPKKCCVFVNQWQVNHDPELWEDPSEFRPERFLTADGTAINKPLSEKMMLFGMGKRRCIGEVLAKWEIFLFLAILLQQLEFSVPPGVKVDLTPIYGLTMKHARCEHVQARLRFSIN

HeLa = assay: Cytotoxicity against human HeLa cells incubated for 48 hrs by MTT assay; format: functional
CYP3A4 = CYP3A4 (Homo sapiens, UniProt P08684); assay: Inhibition of CYP3A4 in human liver microsomes at 10 uM; format: ADME
Chain of CYP3A4 (P08684 whole entry): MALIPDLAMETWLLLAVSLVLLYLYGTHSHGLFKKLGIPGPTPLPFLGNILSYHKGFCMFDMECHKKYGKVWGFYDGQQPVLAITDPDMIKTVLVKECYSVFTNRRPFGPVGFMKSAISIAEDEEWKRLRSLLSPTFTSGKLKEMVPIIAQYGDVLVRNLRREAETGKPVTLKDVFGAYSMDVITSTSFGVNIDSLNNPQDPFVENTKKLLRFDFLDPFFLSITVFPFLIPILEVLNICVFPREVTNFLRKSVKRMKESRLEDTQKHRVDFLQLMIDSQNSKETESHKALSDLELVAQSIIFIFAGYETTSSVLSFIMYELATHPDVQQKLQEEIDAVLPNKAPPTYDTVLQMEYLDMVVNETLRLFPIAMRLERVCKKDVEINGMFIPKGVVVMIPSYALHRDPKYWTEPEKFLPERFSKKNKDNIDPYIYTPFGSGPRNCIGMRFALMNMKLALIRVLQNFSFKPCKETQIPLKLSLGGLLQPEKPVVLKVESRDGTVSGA

[3] = Lipophilicity, log D of the compound; format: physicochemical; conditions: octanol/water
[4] = Solubility in pH 6.8 buffer; format: physicochemical
CYP2C9 = CYP2C9 (Homo sapiens, UniProt P11712); assay: Inhibition of CYP2C9 in human liver microsomes at 10 uM; format: ADME
Chain of CYP2C9 (P11712 whole entry): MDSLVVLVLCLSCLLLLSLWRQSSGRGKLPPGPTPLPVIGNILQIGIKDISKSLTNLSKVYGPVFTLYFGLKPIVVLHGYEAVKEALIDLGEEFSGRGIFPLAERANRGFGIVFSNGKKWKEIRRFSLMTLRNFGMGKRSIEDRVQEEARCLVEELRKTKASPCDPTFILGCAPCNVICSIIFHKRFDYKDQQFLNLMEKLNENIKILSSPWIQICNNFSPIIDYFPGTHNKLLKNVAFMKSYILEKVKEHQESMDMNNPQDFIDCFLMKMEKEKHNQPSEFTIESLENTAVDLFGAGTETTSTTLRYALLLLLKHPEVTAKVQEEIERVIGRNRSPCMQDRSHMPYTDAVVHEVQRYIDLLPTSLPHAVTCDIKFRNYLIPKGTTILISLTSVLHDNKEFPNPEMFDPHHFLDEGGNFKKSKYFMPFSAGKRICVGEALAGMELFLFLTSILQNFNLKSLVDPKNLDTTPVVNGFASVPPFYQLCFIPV

Structure (SMILES) | MIC [1] [µg/mL] | IC50 [2] [µM] | inhibition at 10 µM (CYP2C19) [%] | inhibition at 10 µM (CYP2D6) [%] | inhibition at 10 µM (CYP1A2) [%] | GI50 (HeLa) [µg/mL] | inhibition at 10 µM (CYP3A4) [%] | logD [3] | solubility [4] [µg/mL] | inhibition at 10 µM (CYP2C9) [%]
O=C(c1cc2n(n1)CCCN(Cc1ccc(Cl)c(Cl)c1)C2=O)N1CCCCC1 | 8 | 0.29 | 0 | 0 | 13 | > 100 | 0 | 2.1 | 109 (≈ 259 µM) | 13
O=C(c1cc2n(n1)CCN(Cc1ccc(Cl)c(Cl)c1)C2=O)N1CCNCC1 | > 32 | > 10 |  |  |  |  |  |  |  | 
O=C(c1cc2n(n1)CCN(Cc1ccccc1)C2=O)N1CCCCC1 | > 32 | > 10 |  |  |  |  |  |  |  | 
O=C(c1cc2n(n1)CCN(Cc1ccc(Cl)cc1)C2=O)N1CCCCC1 | 8 | 1.05 |  |  |  | > 100 |  |  |  | 
CN(C)CCOc1ccc(NC(=O)c2cc3n(n2)CCN(Cc2ccc(Cl)c(Cl)c2)C3=O)cc1 | > 32 | > 10 |  |  |  |  |  |  |  | 
CC(=O)N1CCN(C(=O)c2cc3n(n2)CCN(Cc2ccc(Cl)c(Cl)c2)C3=O)CC1 | > 32 | > 10 |  |  |  |  |  |  |  | 
O=C(c1cc2n(n1)CCN(CC1CCCCC1)C2=O)N1CCCCC1 | > 32 | > 10 |  |  |  |  |  |  |  | 
O=C(c1cn2ccn(Cc3ccc(Cl)c(Cl)c3)c(=O)c2n1)N1CCCCC1 | 4 | 0.52 | 6 | 0 | 3 | > 100 | 0 | 3.6 | 1.2 (≈ 2.96 µM) | 0
O=C(c1cc2n(n1)CCN(Cc1ccccc1Cl)C2=O)N1CCCCC1 | > 32 | > 10 |  |  |  |  |  |  |  | 
CC(C)(C)c1ccc(Cn2ccn3nc(C(=O)N4CCCCC4)cc3c2=O)cc1 | 2 | 0.28 | 31 | 14 | 0 | 32 (≈ 81.4 µM) | 0 | 3.7 | < 1 | 46
CN(C)C(=O)c1cc2n(n1)CCN(Cc1ccc(Cl)c(Cl)c1)C2=O | > 32 | > 10 |  |  |  |  |  |  |  | 
CN1CCn2nc(C(=O)N3CCCCC3)cc2C1=O | > 32 | > 10 |  |  |  |  |  |  |  | 
O=C(c1cc2n(c1)CCN(Cc1ccc(Cl)c(Cl)c1)C2=O)N1CCCCC1 | 8 | 1.55 |  |  |  | > 100 |  |  |  | 
CC(C)(C)c1ccc(CN2CCn3nc(C(=O)N4CCCCC4)cc3C2=O)cc1 | 8 | 0.29 | 0 | 0 | 17 | > 100 | 0 | 4 | 54 (≈ 137 µM) | 19
CC(C)(C)c1ccc(CN2CC(O)n3nc(C(=O)N4CCCCC4)cc3C2=O)cc1 (stereo not drawn) | 16 | 3.3 | 4 | 48 | 0 | > 100 | 0 | 3 | 40 (≈ 97.4 µM) | 29
CN1CCN(C(=O)c2cc3n(n2)CCN(Cc2ccc(Cl)c(Cl)c2)C3=O)CC1 | > 32 | > 10 |  |  |  |  |  |  |  | 
O=C(c1cc2n(n1)CCN(Cc1cccc(Cl)c1)C2=O)N1CCCCC1 | 8 | 0.11 |  |  |  | > 100 |  |  |  | 
Cc1cccc(CN2CCn3nc(C(=O)N4CCCCC4)cc3C2=O)c1 | 16 | 0.042 |  |  |  | > 100 |  |  |  | 
O=C(c1cc2n(n1)CCN(Cc1ccc(Cl)c(Cl)c1)C2=O)N1CCC(c2ccccc2)CC1 | > 32 | > 10 |  |  |  |  |  |  |  | 
CC(C)(C)OC(=O)N1CCN(C(=O)c2cc3n(n2)CCN(Cc2ccc(Cl)c(Cl)c2)C3=O)CC1 | > 32 | > 10 |  |  |  |  |  |  |  | 
O=C(c1cc2n(n1)CCN(Cc1cccc(-c3ccccc3)c1)C2=O)N1CCCCC1 | 8 | 0.046 |  |  |  | > 100 |  |  |  | 
O=C(c1cc2c(=O)n(Cc3ccc(Cl)c(Cl)c3)ccn2n1)N1CCCCC1 | 4 | 0.81 | 11 | 30 | 0 | > 100 | 0 | 3.5 | < 1 | 28
O=C(c1cc2n(n1)CCN(c1ccc(Cl)c(Cl)c1)C2=O)N1CCCCC1 | > 32 | > 10 |  |  |  |  |  |  |  | 
CC(C)(C)c1ccc(Cn2ccn3cc(C(=O)N4CCCCC4)nc3c2=O)cc1 | > 32 | 4.7 | 0 | 6 | 0 | > 100 | 0 | 4.1 | 2.7 (≈ 6.88 µM) | 2
O=C(c1cc2n(n1)CCN(Cc1ccc(Cl)c(Cl)c1)C2=O)N1CCCC1 | > 32 | > 10 |  |  |  |  |  |  |  | 
O=C(c1cc2n(n1)CCN(Cc1ccc(Cl)c(Cl)c1)C2=O)N1CCCCC1 | 16 | 0.27 | 0 | 0 | 13 | > 100 | 16 | 3.8 | 7.2 (≈ 17.7 µM) | 11
Cc1ccc(CN2CCn3nc(C(=O)N4CCCCC4)cc3C2=O)cc1 | 8 | 0.52 |  |  |  | > 100 |  |  |  | 
O=C(c1cc2n(n1)C(O)CN(Cc1ccc(Cl)c(Cl)c1)C2=O)N1CCCCC1 (stereo not drawn) | 32 | 1.05 | 31 | 21 | 1 | > 100 | 0 | 3.1 | < 1 | 24
COc1nc2ccc(Br)cc2cc1C(c1ccccc1)C(O)(CCN(C)C)c1cccc2ccccc12 (racemic) | 0.25 | 0.02 |  |  |  |  |  |  |  | 
CC(c1ccc(Cl)c(Cl)c1)N1CCn2nc(C(=O)N3CCCCC3)cc2C1=O (racemic) | > 32 | > 10 |  |  |  |  |  |  |  | 
